These results are taken from PubChem BioAssay (NCI).

Several values for one entry are separate records, joined by “and”; a condition that tells them apart may be missing. Equal values may be shown once.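 Values below derive from 48-hour exposures of cells grown in 96-well plates, with endpoints linearly interpolated between the two concentrations bracketing the appropriate inhibition level. At the GI50, growth is halved. The concentration for full growth arrest is given as TGI.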

Some test systems named below: NCI-H460 lung; MOLT-4 leukemia; IGROV1 ovarian; OVCAR-5 ovarian; NCI-H226 lung; UACC-257 melanoma; OVCAR-4 ovarian; HCT-15 colon; HOP-62 NSCLC; SK-MEL-2 melanoma.
Holding throughout (assay): DTP human tumour cell line panel, 48 h

As a reminder, the TGI is the concentration at which net growth stops. Usually GI50 stands for the concentration giving 50% growth inhibition.

Regarding `NC(=O)c1ccccc1NC(=O)C(=O)C(C(=O)c1ccc2ccccc2c1)C1OC(=O)c2ccccc21` (centres undefined), the total growth inhibition concentration (TGI) is above 100 µM in the assay on NCI-H460 lung; 23.7 µM in the assay with MOLT-4 leukemia; 46.6 µM with IGROV1 ovarian; 67.1 µM with OVCAR-5 ovarian; 9.88 µM in the assay with NCI-H226 lung; 37.4 µM with UACC-257 melanoma. Further, the TGI with OVCAR-4 ovarian came out at 32.9 µM; in the assay with HCT-15 colon, 41.5 µM; in the assay on HOP-62 NSCLC, 24.2 µM; with SK-MEL-2 melanoma, 33.2 µM.

Take `CCOP(=O)(CCP(=O)(OCC)OCC)OCC.C[CH2][Sn]([Cl])([Cl])[CH2]C`: the GI50 is above 81.8 µM with NCI-H460 lung; 39.9 µM with MOLT-4 leukemia; above 100 µM with IGROV1 ovarian; 72 µM with OVCAR-5 ovarian; 20.3 µM in the assay on NCI-H226 lung; 28.5 µM with UACC-257 melanoma. Besides, the GI50 is above 48.7 µM in the assay on OVCAR-4 ovarian, 51.2 µM with HCT-15 colon, above 91.3 µM in the assay with HOP-62 NSCLC and 18.9 µM with SK-MEL-2 melanoma. Moreover, the total growth inhibition concentration (TGI) in the assay on NCI-H460 lung was above 100 µM; in the assay on MOLT-4 leukemia, above 100 µM; with IGROV1 ovarian, above 100 µM; in the assay on OVCAR-5 ovarian, above 100 µM; in the assay on NCI-H226 lung, 42.7 µM; in the assay with UACC-257 melanoma it was 59.3 µM. The TGI is above 71.9 µM with OVCAR-4 ovarian, above 78.7 µM in the assay with HCT-15 colon, above 100 µM in the assay on HOP-62 NSCLC and 43.1 µM in the assay on SK-MEL-2 melanoma.

Turning to `Nc1ccc2c(c1)C(=O)c1ccc(F)cc1-2`, the TGI in the assay with NCI-H460 lung, in the assay with MOLT-4 leukemia, in the assay on IGROV1 ovarian, in the assay on OVCAR-5 ovarian, in the assay with NCI-H226 lung and in the assay with UACC-257 melanoma was above 100 µM in each case. Also, the TGI with OVCAR-4 ovarian, in the assay on HCT-15 colon, in the assay with HOP-62 NSCLC and in the assay on SK-MEL-2 melanoma was above 100 µM each time.

Consider `O=C(CCc1nnc2s/c(=C\c3ccccc3)c(=O)n12)Nc1cc(Cl)ccc1Cl`, for which the TGI in the assay with NCI-H460 lung, in the assay on MOLT-4 leukemia, in the assay with IGROV1 ovarian, in the assay with OVCAR-5 ovarian, with NCI-H226 lung and with UACC-257 melanoma was above 100 µM in each case. In addition, the total growth inhibition concentration (TGI) with OVCAR-4 ovarian, in the assay on HCT-15 colon, in the assay on HOP-62 NSCLC and in the assay on SK-MEL-2 melanoma was above 100 µM in each case.

Take `C=CCN1C(=O)/C(=c2\sc3n(c2=O)C2C(NN=3)N(CC)C(=O)N2CC)c2ccccc21` (centres undefined): the GI50 is 0.413 µM with NCI-H460 lung; 1.71 µM in the assay with MOLT-4 leukemia; 0.978 µM in the assay on IGROV1 ovarian; 1.55 µM in the assay with OVCAR-5 ovarian; 2.19 µM in the assay with NCI-H226 lung; 1.03 µM in the assay with OVCAR-4 ovarian. In addition, the GI50 with HCT-15 colon was 0.451 µM; with HOP-62 NSCLC, 1.02 µM; in the assay with SK-MEL-2 melanoma, 2.17 µM. Moreover, the total growth inhibition concentration (TGI) with NCI-H460 lung, in the assay with MOLT-4 leukemia, in the assay with IGROV1 ovarian, in the assay with OVCAR-5 ovarian, in the assay on NCI-H226 lung and in the assay with UACC-257 melanoma was above 100 µM each time. Further, the TGI in the assay with OVCAR-4 ovarian is above 100 µM; with HCT-15 colon it was above 100 µM; in the assay on HOP-62 NSCLC it was above 53.5 µM; with SK-MEL-2 melanoma, above 38.7 µM.

Take `C/C(CN1C(=O)c2ccccc2C1=O)=N\NS(=O)(=O)c1ccccc1`: the concentration for total growth inhibition (TGI) in the assay on NCI-H460 lung, in the assay on MOLT-4 leukemia, in the assay on IGROV1 ovarian, in the assay with OVCAR-5 ovarian, in the assay on NCI-H226 lung and with UACC-257 melanoma was above 100 µM throughout. Also, the TGI in the assay on OVCAR-4 ovarian, with HCT-15 colon, with HOP-62 NSCLC and in the assay with SK-MEL-2 melanoma was above 100 µM throughout.

With `Oc1nc(NCCc2ccccc2)sc1/C=C1\C=Nc2ncccc21`, the GI50 in the assay with NCI-H460 lung was 3.01 µM and 3.16 µM; with MOLT-4 leukemia it was 3.17 µM and 2.77 µM; with IGROV1 ovarian, 2.51 µM and 3.03 µM; in the assay with OVCAR-5 ovarian, 2.94 µM and 2.93 µM; with NCI-H226 lung it was 2.99 µM and 3.27 µM; in the assay on UACC-257 melanoma, 3.49 µM and 3.36 µM. Besides, the GI50 in the assay on OVCAR-4 ovarian is 2.95 µM and 3.69 µM; with HCT-15 colon it was 2.63 µM and 3.15 µM; in the assay with HOP-62 NSCLC it was 2.47 µM and 3.43 µM; in the assay on SK-MEL-2 melanoma, 2.4 µM and 2.94 µM. In addition, the total growth inhibition concentration (TGI) with NCI-H460 lung was 10.2 µM and 13.6 µM; in the assay on MOLT-4 leukemia it was 11.6 µM and 11 µM; in the assay with IGROV1 ovarian, 18 µM and 50.4 µM; in the assay on OVCAR-5 ovarian, 27.8 µM and 16.9 µM; in the assay with NCI-H226 lung, 14.3 µM and 16.1 µM; with UACC-257 melanoma, 8.68 µM and 8.42 µM. Moreover, the TGI with OVCAR-4 ovarian is 11.7 µM and 18.7 µM; with HCT-15 colon it was 13.9 µM and 33.5 µM; in the assay with HOP-62 NSCLC it was 7.86 µM and 9.47 µM; in the assay with SK-MEL-2 melanoma, 6.65 µM and 9.08 µM.

On to `COc1c(OC(C)=O)cc2c(OC(C)=O)c1CC(C)CC(OC)C(O)C(C)/C=C(\C)C(OC(N)=O)C(OC)/C=C\C=C(/C)C(=O)N2` (centres undefined), for which the TGI in the assay on NCI-H460 lung was above 100 µM; in the assay with MOLT-4 leukemia, above 87.4 µM; with IGROV1 ovarian it was above 100 µM; in the assay with OVCAR-5 ovarian, above 100 µM; in the assay with NCI-H226 lung, above 100 µM; with UACC-257 melanoma, above 100 µM. In addition, the TGI in the assay on OVCAR-4 ovarian, in the assay with HCT-15 colon, with HOP-62 NSCLC and in the assay on SK-MEL-2 melanoma was above 100 µM throughout.

On to `CC(=O)NNc1nc(C)c(C(=O)NNC(=O)C(=O)Nc2ccc(C)c(C)c2)s1`, for which the TGI in the assay on NCI-H460 lung, with MOLT-4 leukemia, in the assay on IGROV1 ovarian, with OVCAR-5 ovarian, in the assay on NCI-H226 lung and in the assay on UACC-257 melanoma was above 100 µM throughout. In addition, the total growth inhibition concentration (TGI) with OVCAR-4 ovarian, in the assay on HCT-15 colon, in the assay with HOP-62 NSCLC and with SK-MEL-2 melanoma was above 100 µM each time.

Consider `Nc1nc(-c2ccccc2)c(-c2ccccc2)c(-c2nc(N)nc(-c3ccccc3)c2-c2ccccc2)n1`, for which the concentration for total growth inhibition (TGI) in the assay on NCI-H460 lung, in the assay with MOLT-4 leukemia, with IGROV1 ovarian, in the assay with OVCAR-5 ovarian, with NCI-H226 lung and in the assay on UACC-257 melanoma was above 100 µM in each case. Besides, the TGI in the assay with OVCAR-4 ovarian, in the assay on HCT-15 colon, in the assay with HOP-62 NSCLC and in the assay on SK-MEL-2 melanoma was above 100 µM throughout.

As for `CC(=O)Nc1ccc2nncnc2c1`, the TGI with NCI-H460 lung, in the assay on MOLT-4 leukemia, with IGROV1 ovarian, in the assay with OVCAR-5 ovarian, with NCI-H226 lung and in the assay on UACC-257 melanoma was above 100 µM in each case. In addition, the TGI in the assay on OVCAR-4 ovarian, in the assay on HCT-15 colon, in the assay on HOP-62 NSCLC and in the assay on SK-MEL-2 melanoma was above 100 µM throughout.
